Measurements published in US4946995A, “Process for the production of thiocarbohydrazide” (Mobay Corporation, priority 1989, dated 1990).
Where two headings read alike, the source gives them in different places.

Assays:
[1] = footnote of Table 2, cited from earlier work
[2] = solubility of HDTC in alcohols; format: physicochemical; conditions: alcohols (methanol, ethanol and isopropanol)
Experimental: The HDTC may be made by any of the methods known to those in the art. One relatively simple method for producing HDTC in quantitative yields is to react carbon disulfide with hydrazine in a molar ratio of 1:2 in an alcohol at 0°-30° C. Appropriate alcohols include methanol, ethanol and isopropanol. […] If hydrazine hydrate is used to produce the HDTC, the water present in the alcohol upon completion of the reaction may be removed by distillation.

Row | solubility in alcohols [2] | SMILES | pKb ([1]; pKb) | pKb ([1]; second printed pKb)
1 | – | C1CN2CCN1CC2 [DABCO, diazabicyclooctane] | 3.0 | 8.7
2 | – | CN(C)c1ccncc1 [DMAP, dimethylaminopyridine] | 4.3 | –
3 | – | CCN(CC)CC [TEA, triethylamine] | 3.35 | –
4 | virtually insoluble | NNC(=S)S [HDTC, Hydrazinium-dithiocarbazinate] | – | –
